Series [1] has as its system Hedgehog signalling pathway. The series can be described thus: Gli-reporter NIH3T3 luciferase assay (Hedgehog pathway inhibition). Type of series: cell-based. The conditions noted are these: NIH3T3, Gli-reporter NIH-3T3 cells, recombinant mouse sonic hedgehog, 24 hours, luminescence. The procedure, abridged: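 Mouse NIH3T3 cells with Gli-responsive luciferase reporter, pre-treated 1 h with compound (top final concentration 1 μM, 0.1% DMSO) in 0.5% calf serum medium. Then stimulated with recombinant mouse sonic hedgehog for 24 h at 37° C. Luminescence read-out (OneGLO), triplicates; IC50 reported.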

Series [2] can be described thus: Thermodynamic solubility with filtration. Type of series: physicochemical. The settings on record: aqueous buffer, thermodynamic from solid, pH 7.4 phosphate buffer (0.1 M), room temperature, filtered. Here is the method:
Thermodynamic Solubility with Filtration
0.5 mg is weighed into a Mini Uniprep filter vial (Whatman, PVDF, 0.2 μm). 0.5 mL of pH 7.4 phosphate buffer (0.1 M) is dispensed and the vial is shaken at 600 rpm for 24 h at room temperature. At the end of this period, the solution is then filtered and an aliquot of the filtrate is used to create a tenfold dilution. Standards are prepared by serially diluting a 1250 μg/mL DMSO stock solution of the compound to 125 and 2.5 μg/mL, in Acetonitrile/Water (50:50, v/v). The concentration of the filtrate and tenfold dilution is measured by detection against the two calibration standards.

[3] abbreviates: read-out: Category (Hedgehog pathway inhibition activity, IC50).

≈ marks a conversion by molar mass, not a printed value. Read-outs that look alike come from different tables or passages of the source.

A word on the IC50: it is the point on the concentration scale where inhibition reaches its midpoint. As a reminder, the solubility is the concentration that dissolves in the medium under given conditions.

`Cc1nc(CN(C)C2CCN(c3nnc(-c4ccnn4C)c4ccccc34)CC2)c(C(F)(F)F)o1` [Example 98, N-methyl-1-[4-(2-methylpyrazol-3-yl)phthalazin-1-yl]-N-[[2-methyl-5-(trifluoromethyl)oxazol-4-yl]methyl]piperidin-4-amine]: in series [1] (read-out: Gli luc IC50), the IC50 fell in the range of 10 to 200 nM. Further, the solubility at 24 h in series [2] stood at 106 µg/mL (≈ 218 µM).

In the case of `Cc1nc(CN(C)C2CCN(c3nnc(-c4ccnn4C)c(C)c3C)CC2)c(C(F)(F)F)o1` [Example 97, 1-[4,5-dimethyl-6-(2-methylpyrazol-3-yl)pyridazin-3-yl]-N-methyl-N-[[2-methyl-5-(trifluoromethyl)oxazol-4-yl]methyl]piperidin-4-amine], the IC50 in series [1] (read-out: Gli luc IC50) was 10 to 200 nM. The compound also showed a solubility at 24 h in series [2] of 1010 µg/mL (≈ 2180 µM).

As to `Cc1c(-c2ccnn2C)nnc(N2CCC(NC(=O)NC(C)(C)C)CC2)c1C` [Example 116, 1-tert-butyl-3-[1-[4,5-dimethyl-6-(2-methylpyrazol-3-yl)pyridazin-3-yl]-4-piperidyl]urea], the IC50 in series [1] (read-out: Gli luc IC50) fell in the range of 10 to 200 nM. Further, in series [2], the solubility at 24 h came to 1260 µg/mL (≈ 3270 µM).

On to `Cc1ccccc1CNC1CCN(c2nnc(-c3ccnn3C)c3ccccc23)CC1` [Example 170, 1-[4-(2-methylpyrazol-3-yl)phthalazin-1-yl]-N-(o-tolylmethyl)piperidin-4-amine], for which the IC50 in series [1] (read-out: Gli luc IC50) was in the range of 10 to 200 nM. The compound also yielded a solubility at 24 h in series [2] of 1190 µg/mL (≈ 2890 µM).

With `CN(C(=O)Nc1ccc(F)cc1C(F)(F)F)C1CCN(c2nnc(-c3ccnn3C)c3ccncc23)CC1` [Example 112, 3-[4-fluoro-2-(trifluoromethyl)phenyl]-1-methyl-1-[1-[1-(2-methylpyrazol-3-yl)pyrido[3,4-d]pyridazin-4-yl]-4-piperidyl]urea], the values for the IC50 in series [1] (read-out: Gli Luc nM (IC50)) and in series [1] (read-out: Gli luc IC50) were 1.26 nM and < 10 nM, respectively. The same compound displayed a solubility at 24 h in series [2] of 399 µg/mL (≈ 755 µM).

For `Cn1nccc1-c1nnc(N2CCC(NCc3cnccc3C(F)(F)F)CC2)c2ccccc12` [Example 156, 1-[4-(2-methylpyrazol-3-yl)phthalazin-1-yl]-N-[[4-(trifluoromethyl)-3-pyridyl]methyl]piperidin-4-amine], the half-maximal inhibitory concentration (IC50) in series [1] (read-out: Gli luc IC50) was < 10 nM. This compound gave a solubility at 24 h in series [2] of 321 µg/mL (≈ 687 µM).

On to `CN(Cc1ccc(F)cc1C(F)(F)F)C1CCN(c2nnc(-c3ccnn3C)c3c2CCC3)CC1` [Example 132, N-[[4-fluoro-2-(trifluoromethyl)phenyl]methyl]-N-methyl-1-[1-(2-methylpyrazol-3-yl)-6,7-dihydro-5H-cyclopenta[d]pyridazin-4-yl]piperidin-4-amine], for which, in series [1] (read-out: Gli luc IC50), the IC50 is 10 to 200 nM.

Turning to `COc1cc(-c2nnc(N3CCC(NCc4ccc(F)cc4C(F)(F)F)CC3)c(C)c2C)ccn1` [Example 121, N-[[4-fluoro-2-(trifluoromethyl)phenyl]methyl]-1-[6-(2-methoxy-4-pyridyl)-4,5-dimethyl-pyridazin-3-yl]piperidin-4-amine], the IC50 in series [1] (read-out: Gli luc IC50) was > 200 nM.

Take `CSc1ccccc1CN(C)C1CCN(c2nnc(-c3ccnn3C)c(C)c2C)CC1` [Example 88, 1-[4,5-dimethyl-6-(2-methylpyrazol-3-yl)pyridazin-3-yl]-N-methyl-N-[(2-methylsulfanylphenyl)methyl]piperidin-4-amine]: in series [1] (read-out: Gli luc IC50), the IC50 was > 200 nM.

With `CN(Cc1ccccc1C#N)C1CCN(c2nnc(-c3ccnn3C)c3ccccc23)CC1` [Example 33, 2-[[methyl-[1-[4-(2-methylpyrazol-3-yl)phthalazin-1-yl]-4-piperidyl]amino]methyl]benzonitrile], the half-maximal inhibitory concentration (IC50) in series [1] (setting [3]) lay in the range of 10 to 200 nM.

As to `Cn1nccc1-c1nnc(N2CCC(NCc3ccccc3C(F)(F)F)CC2)c2ccccc12` [Example 40, 1-[4-(2-methylpyrazol-3-yl)phthalazin-1-yl]-N-[[2-(trifluoromethyl)phenyl]methyl]piperidin-4-amine], the IC50 in series [1] (setting [3]) is < 10 nM.

Take `Fc1ccc(CNC2CCN(c3nnc(N4CCOCC4)c4ccccc34)CC2)c(C(F)(F)F)c1` [Example 145, N-[[4-fluoro-2-(trifluoromethyl)phenyl]methyl]-1-(4-morpholinophthalazin-1-yl)piperidin-4-amine]: the half-maximal inhibitory concentration (IC50) in series [1] (read-out: Gli luc IC50) is > 200 nM.

With `Cn1nccc1-c1nnc(N2CCC(NCc3ccc(Cl)nc3C(F)(F)F)CC2)c2ccccc12` [Example 44, N-[[6-chloro-2-(trifluoromethyl)-3-pyridyl]methyl]-1-[4-(2-methylpyrazol-3-yl)phthalazin-1-yl]piperidin-4-amine], the IC50 in series [1] (setting [3]) was < 10 nM.

Regarding `Cn1nccc1-c1nnc(N2CCC(NCc3ccccc3)CC2)c2ccccc12` [Example 57, N-benzyl-1-[4-(2-methylpyrazol-3-yl)phthalazin-1-yl]piperidin-4-amine], the IC50 in series [1] (setting [3]) was in the range of 200 to 2000 nM.

As for `CN(Cc1ccccc1[N+](=O)[O-])C1CCN(c2nnc(-c3ccnn3C)c3ccccc23)CC1` [Example 114, N-methyl-1-[4-(2-methylpyrazol-3-yl)phthalazin-1-yl]-N-[(2-nitrophenyl)methyl]piperidin-4-amine], the IC50 in series [1] (read-out: Gli luc IC50) was in the range of 10 to 200 nM.

As to `CSc1ccccc1CNC1CCN(c2nnc(-c3ccnn3C)c3ccccc23)CC1` [Example 17, 1-[4-(2-methylpyrazol-3-yl)phthalazin-1-yl]-N-[(2-methylsulfanylphenyl)methyl]piperidin-4-amine], the IC50 in series [1] (setting [3]) lay within 10 to 200 nM.

(Values after patent US9579319B2 (Redx Pharma PLC, priority 2013, dated 2017).)
